{
  "source": "patent US5328913A",
  "about": "“Minoxidil analogs as inhibitors of cell proliferation and lysyl hydroxylase” (priority 1992, dated 1994)",
  "key": {"prolyl hydroxylase": {"tested_on": "prolyl hydroxylase", "test": "Prolyl hydroxylase activity in fibroblasts treated with minoxidil and its hydroxy derivatives (Example 3)", "assay_type": "cell-based, human", "settings": "1 mM", "experimental": "(§1) Culture of human skin fibroblasts derived from an apparently normal adult were grown to confluent densities in Dulbecco's modified Eagle's medium supplemented with 10% (v/v) fetal calf serum. Thereafter, the medium was replaced with medium supplemented with 0.5% dialyzed fetal calf serum. The cultures were treated for 72 hr with 1 mM minoxidil, 3'- hydroxyminoxidil,or 4'-hydroxyminoxidil (Upjohn) dissolved in aqueous medium. In some experiments, minoxodil was dissolved in 95% (v/v) ethanol; the final concentration of minoxidil was 0.3 mM and that of ethanol was 0.3%. Cultures treated with ethanol only served as the control.\nDuring the last 3 hr of treatment, cultures received 100 μM ascorbic acid. The enzyme activities in extracts of treated cells were measured by tritium-release assays described previously (Murad and Pinnell, J. Biol. Chem. 262:11,973 (1987))."}, "[1]": {"tested_on": "Prolyl Hydroxylations in Human Skin Fibroblasts", "test": "Hydroxylation of proline residues in type I procollagen (Hyp/Pro)", "assay_type": "cell-based", "settings": "for Hyp/Pro: 72 hr", "experimental": "Culture of human skin fibroblasts derived from an apparently normal adult were grown to confluent densities in Dulbecco's modified Eagle's medium supplemented with 10% (v/v) fetal calf serum. Thereafter, the medium was replaced with medium supplemented with 0.5% dialyzed fetal calf serum. […] In some experiments, minoxodil was dissolved in 95% (v/v) ethanol; […]. Cultures treated with ethanol only served as the control.\nDuring the last 6 hr of treatment, cultures were labeled with 50 μCi of L-[2,3-^3 H]proline (35 Ci/mmol) and 50 μCi of L[U-^14 C]lysine ([…]) in 4 ml of lysine-free medium supplemented with 100 μM ascorbic acid. At the end of the incubation period, the medium was removed and mixed with 1 mM each of EDTA, N-ethylmaleimide, and phenylmethylsulfonylfluoride, and the collagenous proteins were precipitated with 30% (NH4)2 SO4. The cell layer was scraped and extracted with 0.5 M acetic acid containing the protease inhibitors as above. The cell extract was neutralized, and the collagenous proteins were precipitated as above. The (NH4)2 SO4 precipitate from the medium and cell layer was separately dissolved in 0.1% SDS/10 mM Tris-HCl (pH 6.8), reduced with dithiothreitol, and analyzed by electrophoresis on 4% SDS-polyacrylamide gels. The bands corresponding to the proαl(I) and proα2(I) chains from the two fractions were pooled and hydrolyzed with 6 M HCl for 24 hr at 110° C. Proline, hydroxyproline, lysine, and hydroxylysine in the hydrolysate were separated by HPLC (Takimitsa et al, J. Dermatol. 16:37 (1989)), and their radioactivity was determined in a Beckman liquid scintillation counter. To isolate type I procollagen the precipitate from the medium and cell layer was separately dissolved in 25 mM Tris-HCl, pH 7.5, containing 2 M urea and 1 mM each of EDTA, N-ethylmaleimide, and phenylmethylsulfonylfluoride, then chromatographed on a DEAE-cellulose column (Freiberger et al, J. Invest. Dermatol. 75:425 (1980)). The procollagen isolated from the two fractions was pooled, hydrolyzed, and analyzed as above."}, "[2]": {"tested_on": "Collagen Synthesis in Human Skin Fibroblasts", "test": "Collagen synthesis in human skin fibroblasts", "assay_type": "cell-based", "settings": "1 mM, 72 hr", "experimental": "as §1, with “[…].” for “the final concentration of minoxidil was 0.3 mM and that of ethanol was 0.3%.”\nDuring the last 6 hr of treatment, cultures were labeled with 20 μCi of L-[2,3-^3 H]proline in 1 ml of medium supplemented with 100 μM ascorbic acid. The amount of proline radioactivity incorporated into collagen in the medium and cells combined was measured after digestion with a bacterial collagenase, essentially as described previously (Freiberger et al, J. Invest. Dermatol. 75:425 (1980))."}, "human skin fibroblasts": {"tested_on": "human skin fibroblasts", "settings": "background; cited from earlier work"}, "lysyl hydroxylase": {"tested_on": "lysyl hydroxylase", "settings": "Murad and Pinnell 1987; cited from earlier work"}},
  "data": [
    {"compound": "Nc1cc(N2CCCCC2)nc(N)[n+]1[O-]", "note": "[Minoxidil]", "values": [
      {"measurement": "prolyl hydroxylase activity (in words)", "setting": "prolyl hydroxylase; 72 hr", "result": "remained unchanged"},
      {"measurement": "Prolyl Hydroxylase Activity", "setting": "prolyl hydroxylase; 72 hr (Table VI)", "result": 29446, "unit": "cpm ^3 H2 O/mg protein"},
      {"measurement": "Prolyl Hydroxylase Activity", "setting": "prolyl hydroxylase; 72 hr (description table)", "result": 29446, "unit": "cpm^3 H2 O/mg protein"},
      {"measurement": "Hyp/Pro", "setting": "[1]; 1 mM, gel electrophoresis (Table V)", "result": "0.92 ± .01"},
      {"measurement": "Hyp/Pro", "setting": "[1]; 1 mM, type I procollagen chains isolated by gel electrophoresis, mean ± range of two experiments (description table)", "result": "0.92 ± 0.01"},
      {"measurement": "Hyp/Pro", "setting": "[1]; 0.3 M, type I procollagen chains isolated by gel electrophoresis, mean ± range (Table IV)", "result": "0.91 ± .03"},
      {"measurement": "activity at 1000 µM", "setting": "[1]; Homo sapiens, Skin fibroblast, 1 mM, 72 hr (Table V), read-out: ratio of hydroxyproline to proline, % control value", "result": 100, "unit": "%"},
      {"measurement": "ratio of hydroxyproline to proline (in words)", "setting": "[1]; Table IV text", "result": "remained unaltered"},
      {"measurement": "% Collagen Synthesized", "setting": "[2]; mean ± SD of duplicate analysis of two cultures (Table VII)", "result": "6.6 ± 0.7", "unit": "%"},
      {"measurement": "inhibition at 1000 µM", "setting": "[2]; Homo sapiens, Skin fibroblast, compared with control, read-out: reduction of synthesis of collagen relative to that of total protein", "result": 25, "unit": "%"},
      {"measurement": "inhibition of serum-induced proliferation of fibroblasts in culture (in words)", "setting": "human skin fibroblasts", "result": "capable of inhibiting the serum-induced proliferation of fibroblasts in culture"},
      {"measurement": "effect on lysyl hydroxylase in cultured fibroblasts (in words)", "setting": "lysyl hydroxylase", "result": "selectively decreased the activity of lysyl hydroxylase"}
    ]}
  ]
}
